Values joined by “and” are separate entries in the source; they are usually repeats but may differ in a detail not shown here. Equal entries are not always repeated. Where two headings read alike, the source gives them in different places.

The source of these data is patent publication US5260280A (priority 1989, dated 1993).

The target of one test is cholera toxin CT (Vibrio cholerae, UniProt P01556). It counts as cell-based.
The target of a further test is enterotoxin CFA/I(LT-1) (Escherichia coli, UniProt D0Z6T1). It counts as cell-based, E. coli.
The target of test [1] is enterotoxin CFA/II(LT-II) (Escherichia coli, UniProt P0CK94). It counts as cell-based, E. coli.
In a further test the target is cholera toxin B-subunits (Vibrio cholerae, UniProt P01556). It counts as binding.
A further test has as its system cholera toxin. It counts as in vivo, Vibrio cholerae. As to conditions: Balb/c mice, CT 0.25 mg oral on day 8.
The next test relates to enterotoxin LT-I. Also noted: species or system E. coli. The following applies: in vivo, po.
A further test concerns CHO-Kl cells. It counts as cell-based, Chinese hamster.
The test system of a further test is enterotoxin LT-II. Also noted: species or system E. coli. As to conditions: in vivo, po.

Chain of cholera toxin CT (P01556 whole entry, looked up): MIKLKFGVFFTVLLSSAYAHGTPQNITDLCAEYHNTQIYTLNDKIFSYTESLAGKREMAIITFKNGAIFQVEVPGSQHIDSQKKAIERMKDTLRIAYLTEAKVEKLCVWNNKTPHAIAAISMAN
Chain of enterotoxin CFA/I(LT-1) (D0Z6T1 whole entry, looked up): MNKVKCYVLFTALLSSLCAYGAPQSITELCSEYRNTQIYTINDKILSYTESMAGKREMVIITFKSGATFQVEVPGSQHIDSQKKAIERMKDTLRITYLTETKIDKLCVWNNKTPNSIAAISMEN
Chain of enterotoxin CFA/II(LT-II) (P0CK94 whole entry, looked up): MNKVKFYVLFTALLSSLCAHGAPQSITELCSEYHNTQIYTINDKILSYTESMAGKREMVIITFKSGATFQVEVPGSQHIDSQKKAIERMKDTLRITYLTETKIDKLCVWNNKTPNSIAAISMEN

Turning to sialyllactose [SL], the “neutralization of the toxicity of CT against CHO-Kl cells (morphological alteration)” value on cholera toxin CT (samples 1 or 5 micrograms/chamber, CT 10 micrograms/ml) is on record as “neutralized the toxicity”. Moreover, the “neutralization of the toxicity of LT-I against CHO-Kl cells (morphological alteration)” value on enterotoxin CFA/I(LT-1) (samples 1 or 5 micrograms/chamber, LT-I culture supernatant) is on record as “neutralized the toxicity”. Further, the “neutralization of the toxicity of LT-II against CHO-Kl cells (morphological alteration)” value in test [1] (samples 1 or 5 micrograms/chamber, LT-II culture supernatant) is “neutralized the toxicity”. Also, the “interference with the binding of the cholera toxin B-subunits to GM1” value (shortened to “interference with the binding”) on cholera toxin B-subunits (GM1-adsorbed plate, peroxidase-labeled CT-B, absorbance at 405 nm) is reported as “interfered with the binding”. The Rate of diarrhea is 20% in the test on cholera toxin (oral 0.2 mg/day for 7 days); 20% in the test with cholera toxin (oral 0.5 mg/day for 7 days); 0% in the test on cholera toxin (oral 1.0 mg/day for 7 days); 40% and 20% in the test with enterotoxin LT-I.

Consider cholera toxin [CT], for which the “CHO-Kl cells morphologically altered” value with CHO-Kl cells was “at least 70%”.

Consider kappa-casein, for which the “neutralization of the toxicity of CT against CHO-Kl cells (morphological alteration)” value with cholera toxin CT is reported as “neutralized the toxicity”. In the test with enterotoxin CFA/I(LT-1), the “neutralization of the toxicity of LT-I against CHO-Kl cells (morphological alteration)” value is given as “neutralized the toxicity”. In test [1], the “neutralization of the toxicity of LT-II against CHO-Kl cells (morphological alteration)” value is on record as “neutralized the toxicity”. In the test with cholera toxin B-subunits, the “interference with the binding” value is listed as “interfered with the binding”.

As to ganglioside GD3, in the test with enterotoxin LT-II, the Rate of diarrhea was 40% and 20%.

Consider kappa-casein glycomacropeptides [GMP], for which the “neutralization of the toxicity of CT against CHO-Kl cells (morphological alteration)” value on cholera toxin CT is reported as “neutralized the toxicity”. The “neutralization of the toxicity of LT-I against CHO-Kl cells (morphological alteration)” value at enterotoxin CFA/I(LT-1) is on record as “neutralized the toxicity”. Further, the “neutralization of the toxicity of LT-II against CHO-Kl cells (morphological alteration)” value in test [1] is listed as “neutralized the toxicity”. Moreover, the “interference with the binding” value on cholera toxin B-subunits was “interfered with the binding”.
